According to the METLIN SMRT retention time set (Domingo-Almenara et al. 2019):

Assay: gradient 5% acetonitrile 3 min, to 50% in 2 min, to 85% in 15 min, held 3 min, 100 µL/min
Conditions: column: Zorbax Extend-C18 2.1 x 50 mm; eluents: water / acetonitrile, 0.1% formic acid
In short: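 Standards, all pure, were combined into mixtures of ~100 molecules and run at 100 μL/min on a Zorbax Extend-C18 column (2.1 × 50 mm, 1.8 μm) with water and acetonitrile, each containing 0.1% formic acid. A coupled quadrupole time-of-flight mass spectrometer operated in positive and negative ionization mode. Retention time values come from computationally picked adduct peaks, each inspected manually.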

RP-LC retention time [s]	Compound
751	Cc1nn(CC(=O)N2CCN(c3ccc(F)cc3)CC2)c(=O)c2noc(C)c12
659	Cc1ccccc1NC(=O)N1CCCC(Cn2cnc3cccnc32)C1 (stereo not drawn)
634	CCN(CC)CCNC(=O)c1ccc(CS(=O)(=O)c2ccc(Br)cc2)o1
1030	CCN(CC)S(=O)(=O)c1cc(-c2nnc(-c3ccccc3OC)o2)ccc1C
1180	COc1ncccc1CNC(=O)c1cc(Cl)ccc1F
582	O=C(c1ccccn1)N1CC(n2cnnc2C2CCCO2)C1 (stereo not drawn)
740	CCC(=O)Nc1ccc(OCc2cc(C(=O)NC3CCCC3)no2)cc1
1320	O=C(Nc1nc(-c2ccccc2)c(-c2ccccc2)o1)NC1CCCCC1
829	CCOc1ccc(-c2nc(-c3ccc4ncn(CC)c4c3)no2)cc1
584	CCCN(C)CC1(O)CCC2(CCN(C(=O)C3CCCC3)CC2)CC1
715	CCCNC(=O)C1CCN(c2ccc(SCC(=O)Nc3ccccc3C(=O)OCC)nn2)CC1
1120	Cc1nc2cc(-c3noc(Cc4ccccc4Br)n3)ccc2o1
618	Cc1cnc(C(=O)N2CCC(N3C(=O)C(OCC4CC4)C34CCOCC4)CC2)cn1 (stereo not drawn)
1100	Cc1nc(-c2cc(S(=O)(=O)Nc3cc(F)ccc3F)c(C)s2)sc1C
962	Cc1ccc2[nH]cc(CCNC(=O)Nc3ccc(Cl)cc3)c2c1
720	COc1ccc(NC(=O)N2CCC(C)(C(=O)NCc3ccc4c(c3)OCO4)CC2)c(OC)c1
672	CC(C)CNc1nc2ccncc2n(Cc2ccccc2)c1=O
630	CCc1cccc(NC(=O)Nc2c(-c3ccncc3)nc3ccccn23)c1
805	CC(C)N1CCn2cc(S(=O)(=O)Nc3ccc(Cl)cc3)cc2C1=O

RP-LC retention time [s]	Compound
674	O=C(CC1CCCC1)NCc1cccnc1-c1ccc(F)cc1
685	Cn1ccc2cc(S(=O)(=O)N3CCCC(C(=O)NC4CCN(Cc5ccccc5)CC4)C3)ccc21 (stereo not drawn)
746	CCOCC(=O)N1CC(F)(F)C[C@H]1c1nc(C2CC2)no1
714	CCC1CCCCN1CCCNC(=O)C1CCCN(c2nccnc2Sc2ccccc2)C1 (stereo not drawn)
1190	Cc1sc(C)c(S(=O)(=O)Nc2cccc(Cl)c2)c1-c1cc(C(F)(F)F)on1
827	O=C(Nc1cccc(F)c1)N1CCC(N2CCN(Cc3ccccc3)C2=O)CC1
653	COC(=O)c1ccc(C2CC(=O)NC3=C2C(=O)CCC3)cc1 (stereo not drawn)
530	O=C(Cn1ncccc1=O)Nc1cccc(-c2cn3c(n2)SCC3)c1
755	COc1ccc(-c2nnc(Cc3nc(-c4cccnc4)no3)o2)cc1
992	CCc1ccc(NC(=O)C2CCCN(S(=O)(=O)c3cc(-c4noc(C)n4)cs3)C2)cc1 (stereo not drawn)
644	Cc1ccc(-c2nnc(C)c(NC3CC3)n2)cc1
969	COc1cccc(CNC(=O)C2(C)CCCN(C(=O)Nc3ccc(Br)cc3)C2)c1 (stereo not drawn)
651	CN(C)c1ccc(CNC(=O)CN2C(=O)CCc3cc(Br)ccc32)cc1
633	CNC(=O)C1CCCN(C(=O)Nc2ccc(NC(=O)Nc3ccc(OC)cc3)cc2)C1 (stereo not drawn)
856	CN(C)S(=O)(=O)c1ccc2c(c1)N(CC(=O)NC1CCCC1)C(=O)C1CCCCN21 (stereo not drawn)
756	O=C(CCc1ccc2c(c1)CN(S(=O)(=O)c1cccc3nsnc13)CCO2)NC1CC1
569	CC(C)C1c2nccn2CCCN1C(=O)c1n[nH]c(=O)c2ccccc12 (stereo not drawn)
578	CN(C)c1cc(N2CCCC(NC(=O)c3ccnn3C)C2)ncn1 (stereo not drawn)
759	COc1ccc(S(=O)(=O)N2CC3CN(C(=O)CC(C)C)CC(C2)O3)cc1
